Test in all cases: relative viability (nuclei count vs DMSO), 5 days (fraction); higher = more cells survive
Compound in the experiment “Motesanib + Phenformin”: CC1(C)CNc2cc(NC(=O)c3cccnc3NCc3ccncc3)ccc21 [Motesanib] + N=C(N)NC(=N)NCCc1ccccc1 [Phenformin] (partner 250 µM)
Summed up:
(§1)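 Five library-drug doses in √10 steps were combined with a fixed anchor-drug dose, or a single drug was given alone, by pin tool to lung cancer cell lines in 1536-well plates the day after seeding. Nuclei were stained and counted after 5 days. Relative viability is the nuclei count in treated wells over that in vehicle wells, taken as the median of duplicate plates.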

Compound in the experiment “Motesanib + Alpelisib”: CC1(C)CNc2cc(NC(=O)c3cccnc3NCc3ccncc3)ccc21 [Motesanib] + Cc1nc(NC(=O)N2CCC[C@H]2C(N)=O)sc1-c1ccnc(C(C)(C)C(F)(F)F)c1 [Alpelisib] (partner 2 µM)
Summed up:
as §1

Compound in experiment [1]: C[C@@]1(C(=O)Nc2ccc(F)nc2)CCCN1c1nc(Nc2cc(C3CC3)n[nH]2)c2cccn2n1 + O=C(CCCCCCC(=O)Nc1ccccc1)NO [Vorinostat] (partner 1 µM)
Summed up:
as §1

Compound in the experiment “Motesanib + Trametinib”: CC1(C)CNc2cc(NC(=O)c3cccnc3NCc3ccncc3)ccc21 [Motesanib] + CC(=O)Nc1cccc(-n2c(=O)n(C3CC3)c(=O)c3c(Nc4ccc(I)cc4F)n(C)c(=O)c(C)c32)c1 [Trametinib] (partner 0.02 µM)
The method, boiled down:
as §1

With NCI-H2087, the relative viability in the experiment with Motesanib + Phenformin (first compound 0.01 µM) turned out to be 0.475; with Motesanib + Phenformin (first compound 0.03162 µM), 0.411; in the experiment with Motesanib + Phenformin (first compound 0.1 µM) it was 0.575; in the experiment with Motesanib + Phenformin (first compound 0.3162 µM) it was 0.489; in the experiment with Motesanib + Phenformin (first compound 1 µM) it was 0.484; with Motesanib + Alpelisib (first compound 0.01 µM), 1.01. Also, the relative viability in the experiment with Motesanib + Alpelisib (first compound 0.03162 µM) came out at 1.08; with Motesanib + Alpelisib (first compound 0.1 µM) it was 1.07; with Motesanib + Alpelisib (first compound 0.3162 µM), 1.16; with Motesanib + Alpelisib (first compound 1 µM), 1.03; in experiment [1] (first compound 0.04 µM), 0.635; in experiment [1] (first compound 0.1265 µM), 0.774. The relative viability was determined as 0.473 in experiment [1] (first compound 0.4 µM); 0.357 in experiment [1] (first compound 1.265 µM); 0.199 with Motesanib + Trametinib (first compound 0.1 µM); 0.182 with Motesanib + Trametinib (first compound 0.3162 µM); 0.182 with Motesanib + Trametinib (first compound 1 µM).
NCI-H2126: the relative viability amounted to 0.525 with Motesanib + Phenformin (first compound 0.01 µM); 0.557 in the experiment with Motesanib + Phenformin (first compound 0.03162 µM); 0.511 in the experiment with Motesanib + Phenformin (first compound 0.1 µM); 0.567 in the experiment with Motesanib + Phenformin (first compound 0.3162 µM); 0.579 with Motesanib + Phenformin (first compound 1 µM); 0.77 in the experiment with Motesanib + Alpelisib (first compound 0.01 µM). The relative viability was 0.723 in the experiment with Motesanib + Alpelisib (first compound 0.03162 µM); 0.724 with Motesanib + Alpelisib (first compound 0.1 µM); 0.768 in the experiment with Motesanib + Alpelisib (first compound 0.3162 µM); 0.699 in the experiment with Motesanib + Alpelisib (first compound 1 µM); 0.595 in experiment [1] (first compound 0.04 µM); 0.352 in experiment [1] (first compound 0.1265 µM). Moreover, the relative viability was found to be 0.315 in experiment [1] (first compound 0.4 µM); 0.425 in experiment [1] (first compound 1.265 µM); 0.58 with Motesanib + Trametinib (first compound 0.01 µM); 0.579 with Motesanib + Trametinib (first compound 0.03162 µM); 0.579 with Motesanib + Trametinib (first compound 0.1 µM); 0.543 with Motesanib + Trametinib (first compound 0.3162 µM). The relative viability in the experiment with Motesanib + Trametinib (first compound 1 µM) worked out at 0.547.
For the cell line NCI-H2170, the relative viability in the experiment with Motesanib + Phenformin (first compound 0.01 µM) was 0.469; with Motesanib + Phenformin (first compound 0.03162 µM), 0.359; with Motesanib + Phenformin (first compound 0.1 µM), 0.447; in the experiment with Motesanib + Phenformin (first compound 0.3162 µM) it was 0.489; with Motesanib + Phenformin (first compound 1 µM) it was 0.409; in the experiment with Motesanib + Alpelisib (first compound 0.01 µM), 0.803. For the same cell line, the relative viability with Motesanib + Alpelisib (first compound 0.03162 µM) is 0.789; with Motesanib + Alpelisib (first compound 0.1 µM), 0.824; with Motesanib + Alpelisib (first compound 0.3162 µM), 0.785; in the experiment with Motesanib + Alpelisib (first compound 1 µM), 0.794; in experiment [1] (first compound 0.04 µM), 0.825; in experiment [1] (first compound 0.1265 µM), 0.729. Further, the relative viability in experiment [1] (first compound 0.4 µM) is 0.819; in experiment [1] (first compound 1.265 µM), 0.743; with Motesanib + Trametinib (first compound 0.01 µM), 0.861; with Motesanib + Trametinib (first compound 0.03162 µM) it was 0.872; with Motesanib + Trametinib (first compound 0.1 µM) it was 0.91; in the experiment with Motesanib + Trametinib (first compound 0.3162 µM), 0.909. Further, the relative viability with Motesanib + Trametinib (first compound 1 µM) worked out at 0.979.
Turning to NCI-H2228, the relative viability with Motesanib + Phenformin (first compound 0.01 µM) is 0.26; with Motesanib + Phenformin (first compound 0.03162 µM) it was 0.329; in the experiment with Motesanib + Phenformin (first compound 0.1 µM), 0.257; in the experiment with Motesanib + Phenformin (first compound 0.3162 µM) it was 0.394; in the experiment with Motesanib + Phenformin (first compound 1 µM) it was 0.208; with Motesanib + Alpelisib (first compound 0.01 µM) it was 0.767. For the same cell line, the relative viability with Motesanib + Alpelisib (first compound 0.03162 µM) worked out at 0.713; in the experiment with Motesanib + Alpelisib (first compound 0.1 µM) it was 0.722; with Motesanib + Alpelisib (first compound 0.3162 µM), 0.777; with Motesanib + Alpelisib (first compound 1 µM), 0.806; in experiment [1] (first compound 0.04 µM), 0.474; in experiment [1] (first compound 0.1265 µM), 0.444. The relative viability came out at 0.513 in experiment [1] (first compound 0.4 µM); 0.298 in experiment [1] (first compound 1.265 µM); 0.395 with Motesanib + Trametinib (first compound 0.01 µM); 0.764 in the experiment with Motesanib + Trametinib (first compound 0.03162 µM); 0.459 with Motesanib + Trametinib (first compound 0.1 µM); 0.505 with Motesanib + Trametinib (first compound 0.3162 µM). Further, the relative viability with Motesanib + Trametinib (first compound 1 µM) worked out at 0.466.

Source of the values: the supplement of paper PMC10307832.
